# PubChem BioAssay AID463229 (Broad Institute, 2010)
# Activity calls are given as the source filed them.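 The calls were made as follows: active = compounds raising the signal whose fitted half-maximal concentration is at or below their top tested dose (cut at about 25 µM in these data); inconclusive = flat fit at 30 to 70% activity, or a poor fit; inactive = the rest.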
# Test system: INS-1E rat beta cells, no cytokines, CellTiter-Glo ATP, 48 h
# Experiment: cytokine-free beta-cell viability effect – INS-1E rat cells, ATP luminescence, cherry pick, counter-screen for beta-cell apoptosis protection project, dose response (AID 463229)
row,SMILES,AC50
1,CCOC(=O)N1CCN(S(=O)(=O)c2ccc(C(=O)NNc3nc4c(C)cc(C)cc4s3)cc2)CC1,11.3 µM
2,CCN(CC)c1ccc(/C=N/NC(=O)c2cccc(S(=O)(=O)N3CCOCC3)c2)c(O)c1,2.12 µM
3,CCOC(=O)c1ccc(NC(=O)c2nc(S(=O)(=O)Cc3ccccc3)ncc2Cl)cc1,9.2 µM
4,CCCCCCCCNC(C)C(O)c1ccc(SC(C)C)cc1 (stereo not drawn),10.5 µM
5,CN1/C(=C\C(=O)COC(=O)c2ccc(O)c(O)c2)C(C)(C)c2ccccc21,10.1 µM
6,O=C(Nc1ccc(S(=O)(=O)N2CCOCC2)cc1)c1ccc([N+](=O)[O-])s1,6.8 µM
7,CC(=O)c1cccc(NS(=O)(=O)c2ccc(N/C=C/C(=O)c3ccc(F)cc3)cc2)c1,5.02 µM
8,Cc1sc2ncnc(NCC(O)c3ccccc3)c2c1C (stereo not drawn),10.5 µM
9,CC(C)C(=O)NC(c1ccccc1)c1cc([N+](=O)[O-])c2cccnc2c1O (stereo not drawn),10.6 µM
10,O=C1C(=O)c2ccccc2-c2ccccc21,1.01 µM
11,COc1ccc([C@H]2CC(=O)C=C(c3ccnc4ccc(Cl)cc34)C2)cc1,6.01 µM
12,COc1ccccc1C(=O)Nc1nc2ccccc2[nH]1,1.22 µM
13,CC1=C(C)/C(=N\OS(=O)(=O)c2ccccc2)C=CC1=O,4.13 µM
14,Cc1cccc(Nc2nc(N)c([N+](=O)[O-])c(N3CC(C)CC(C)C3)n2)c1 (stereo not drawn),14.8 µM
15,Cc1ccc(-c2cc(-c3ccccc3)cc(-c3ccccc3)[n+]2-c2ccccc2)cc1,2.08 µM
16,CCOc1ccc(OCc2ccc(C(=O)NN=Cc3ccc[nH]3)cc2)cc1,0.739 µM
17,Cc1ccc(C)c(NC(=O)/C(C#N)=C/c2cn(CC(=O)NCc3ccco3)c3ccccc23)c1,5.47 µM
18,COc1cc(OC)c(NC2=CC(=O)C(=O)c3ccccc32)cc1Cl,8.07 µM
19,C(=N\Nc1ncnc2sc3c(c12)CCC3)/c1cccs1,9.08 µM
20,c1nc(NCc2ccc3c(c2)OCO3)c2cc(-c3ccc4c(c3)OCCO4)ccc2n1,15.5 µM
21,Cc1ccc(F)c([C@H]2C3C=CCC(c4ccccc4)C3C(=O)N2Cc2ccccc2)c1 (stereo partly drawn),14.4 µM
22,Cc1ccccc1OCc1n(CC(=O)OC2CC(C)CCC2C(C)C)c2ccccc2[n+]1C (stereo not drawn),4.05 µM

row,SMILES,AC50
1,C=CCc1cccc(/C=N/NC(=O)c2ccc3nc[nH]c3c2)c1O,6.52 µM
2,CN(C)C(=O)c1ccc(NC(=O)c2cccc(S(=O)(=O)N3CCCCCC3)c2)cc1,> 26 µM (inactive)
3,Cc1[nH]n(-c2ccccc2)c(=O)c1/C=N/Nc1nncc(-c2ccccc2)n1,1.22 µM
4,CCOc1ccc2nc(NC(=O)c3cccc(-c4cc5ccccc5oc4=O)c3)sc2c1,3.31 µM
5,C/C(=N\NC(=O)COc1ccccc1-c1ccccc1)c1ccc(O)cc1O,10.5 µM
6,CC(C)Oc1ccc(C(CCN)C2CCCCC2)cc1 (stereo not drawn),13.3 µM
7,COc1ccc(C(=O)Nc2ccccc2C(=O)N/N=C/c2ccccn2)cc1OC,8.14 µM
8,COc1ccc(C(C(=O)NC2CCCCC2)N(C(=O)CCl)c2cccc(Cl)c2)cc1 (stereo not drawn),7.03 µM
9,O=C(NC1CCCC1)c1cc(COc2ccc3ncccc3c2)on1,5.91 µM
10,Clc1cccc(N=C2NN=C(c3ccc4c(c3)OCCO4)CS2)c1,1.76 µM
11,COc1cccc(CN(C)C(=O)c2cc(COc3ccc4ncccc4c3)on2)c1,6.86 µM
12,CC(=O)Oc1c(I)cc(I)cc1C(=O)Nc1ccc(Cl)cc1,14.8 µM
13,C#CCOCCOCCOCCNc1nc(N2CCN(C(=O)CCCCCCCCCCNC(=O)[C@H]([C@@H](C)CC)n3cc(CCCCN=C(N)N)nn3)CC2)nc(N2CCN(C(=O)CCCCCCCCCCNC(=O)[C@H](CCCCN)n3cc(C)nn3)CC2)n1,6.28 µM
14,CC(C)CC[n+]1ccn(C2=C([O-])c3ccccc3C(=O)/C2=N\S(=O)(=O)c2ccccc2)c1,22.9 µM
15,CS(=O)(=O)N(CC(=O)Nc1ccc(CC#N)cc1)c1ccc(C23CC4CC(CC(C4)C2)C3)cc1,7.41 µM
16,CCCC(=O)NC(c1ccc(Cl)cc1)c1ccc2cccnc2c1O (stereo not drawn),2.08 µM
17,CC(C)CC(=O)NC(c1cccs1)c1ccc2cccnc2c1O (stereo not drawn),2.33 µM
18,O=S(=O)(c1ccc(F)c(F)c1F)N1CCN(c2ncnc3sccc23)CC1,7.17 µM
19,N#CCSc1nc2ccccc2c2nc3ccccc3n12,10.3 µM
20,COc1cc(-c2nc3ccc(C)cn3c2NCc2ccccc2)ccc1SC1CCCCC1,5.49 µM
21,c1ccc(CNc2nc(NCc3ccccc3)c3ccccc3n2)cc1,11.1 µM
22,CCC(C)Nc1nc(-c2ccccn2)nc2ccccc12 (stereo not drawn),9.01 µM

row,SMILES,AC50
1,COC(=O)C1=C(C)N(Cc2ccccc2)C(=NCc2cccc(Cl)c2)N[C@H]1c1cccc(F)c1,6.75 µM
2,CCCCCn1c(=O)c(C(=O)Nc2ncccc2C)c(O)c2ccccc21,6.75 µM
3,FC(F)(F)c1ccccc1NC(=S)N1CCN(Cc2ccc3c(c2)OCO3)CC1,7.35 µM
4,COc1ccc(Br)cc1CN1CCN(Cc2c[nH]c3ccccc23)CC1,7.35 µM
5,CN1/C(=C\C(=O)C[n+]2ccc(C(=O)c3ccccc3)cc2)C(C)(C)c2ccccc21,1.26 µM
6,COc1ccccc1-n1c(=O)oc2ccc(Cl)cc2c1=O,11.8 µM
7,O=C(Nc1ccccc1O)C(c1ccccc1)c1ccccc1,6.92 µM
8,Cc1cccc(N2C(=S)N=C(Nc3c(C)cccc3C)C23CCOC(C)(C)C3)c1 (stereo not drawn),3.79 µM
9,CCCCCCOc1ccc(CN2CCN(C)CC2)cc1,11 µM
10,COc1ccc(CC2(CO)CCN(CC3=Cc4cc(Cl)ccc4OC3)CC2)cc1,4.18 µM
11,CCn1c(=NC(=O)CCS(=O)(=O)c2ccccc2)sc2cccc(OC)c21,7.2 µM
12,Clc1ccc(OCCN2CCN(c3ncnc4sccc34)CC2)cc1,0.726 µM
13,Cc1ccccc1N=Nc1ccc(O)c2ncccc12,4.41 µM
14,O=C(NCc1ccccc1)C1=C[C@@H](c2csc3ccccc23)C[C@@H](OCc2ccc(CO)cc2)O1,5.16 µM
15,COc1ccc(C)cc1NS(=O)(=O)c1ccc(NC(=O)CN(c2cc([N+](=O)[O-])ccc2C)S(C)(=O)=O)cc1,1.11 µM
16,CCCNC1=C(N(C(C)=O)c2cccc(F)c2)C(=O)c2ccccc2C1=O,3.06 µM
17,Cc1nc(N/N=C/c2ccccn2)sc1C,9.42 µM
18,Cc1cc(C(=O)N/N=C/c2cc(Br)ccc2OC(=O)c2ccccc2)n[nH]1,7.44 µM
19,Cc1ccc(-c2csc(NC(=O)c3c(C)noc3C)n2)s1,4.85 µM
20,C=CCC1(CC=C)CCCN1C(=O)c1cc(COc2ccc(C)nc2)on1,2.54 µM
21,Cc1occc1C(=O)N/N=C/c1c(O)ccc2ccccc12,7.95 µM
22,CCOC(=O)c1[nH]cnc1N=Nc1c(O)ccc2ccccc12,2.28 µM

row,SMILES,AC50
1,CC1=NNC(=O)/C1=C\c1cn(-c2ccccc2)nc1-c1ccc(Cl)cc1,10.9 µM
2,COc1ccc(Nc2nc(N3CCCC3)c3ccccc3n2)cc1,9.85 µM
3,O=C(c1ccccc1)c1c2c(cc3sc4ccccc4[n+]13)-c1cccc3cccc-2c13,2.26 µM
4,OCCNc1nc(Nc2ccc(Cl)c(Cl)c2)nc2ccccc12,14.3 µM
5,Cc1c(C(=O)Nc2nc(-c3ccccn3)cs2)oc2ccccc12,17.4 µM
6,CCOC(=O)C(=CNc1ccc(C(O)(C(=O)OCC)C(F)(F)F)cc1C)C(=O)OCC (stereo not drawn),5.26 µM
7,Cc1ccc(-c2nn(-c3ccccc3)cc2/C=N/NC(=O)c2ccc3c(c2)OCO3)cc1,5.63 µM
8,Cc1[nH]nc2nc(SCC(=O)NCCC3=CCCCC3)n(-c3ccc(Br)cc3)c(=N)c12,6.36 µM
9,Cc1ccc(C)c(S(=O)(=O)Nc2cc(SCC(=O)O)c(O)c3ccccc23)c1,7.19 µM
10,Cc1ccc(-n2ncc3c2CCCC3NC(=O)c2ocnc2C)cc1C (stereo not drawn),6.97 µM
11,S=C(NCc1ccc(Cl)cc1)NC12CC3CC(CC(C3)C1)C2,13.9 µM
12,CCOc1cc(S(=O)(=O)NCc2ccncc2)ccc1Cl,1.19 µM
13,O=C(NNC(=O)c1ccccc1O)c1ccc(Cl)c(S(=O)(=O)N2CCc3ccccc32)c1,7.82 µM
14,O=C(Nc1cc(S(=O)(=O)N2CCCCC2)ccc1Cl)c1ccccc1NS(=O)(=O)c1ccc(F)cc1,3.66 µM
15,CCCCCCc1cc2cc(C(=O)Nc3cccc(OC)c3)c(=O)oc2cc1O,4.41 µM
16,CCN(CC)Cc1c(O)ccc2c1O/C(=C\C=C\c1ccccc1)C2=O,14.4 µM
17,Cc1ccc(S(=O)(=O)/N=C2\C=C(Nc3ccc(O)cc3)C(=O)c3ccccc32)cc1,1.91 µM
18,N#Cc1c(Cl)nsc1NC(=O)c1ccccc1,8.12 µM
19,Cc1cc(N/N=C\c2ccc(Br)cc2)nc(-n2nc(C)cc2C)n1,21.5 µM
20,O=C(CSc1nc2ccccc2c(=O)n1-c1ccccc1)N1CCc2ccccc2C1,3.16 µM
21,CCN1/C(=C/c2cccc[n+]2C)Sc2ccc(OC)cc21,1.58 µM
22,CN(C)S(=O)(=O)c1cccc(N=C2NN=C(c3ccccc3)CS2)c1,4.4 µM

row,SMILES,AC50
1,CCOc1ccc(-n2c(-c3ccccc3)c[n+]3c2CCCCC3)cc1,0.85 µM
2,CCOC(=O)c1c(NC(=O)C[n+]2ccc(Cc3ccccc3)cc2)sc(C)c1C,10.9 µM
3,Cc1nnc(N=c2ssnc2Cl)o1,13.6 µM
4,O=C(/C=C/c1ccccc1)NC(=S)NNC(=O)c1cnccn1,5.91 µM
5,CCN(CC)S(=O)(=O)c1ccc(N2CCN(c3ccccc3OC)CC2)c(N)c1,5.19 µM
6,COCCNC(=O)CSC1=N/C(=C/c2ccc(Cl)c(Cl)c2)C(=O)N1c1ccccc1F,8.25 µM
7,CN(C)CCCN(C(=O)c1ccc(S(=O)(=O)N(C)Cc2ccccc2)cc1)c1nc2cc3c(cc2s1)OCO3,15.9 µM
8,Cc1cc(C(C)(C)C)cc(C)c1Cn1c2[n+](c3ccc(C(F)(F)F)cc31)CCCCC2,4.19 µM
9,Cc1nc2ccccc2c2oc(C(=O)Nc3ccc(C(C)C)cc3)cc12,21.6 µM
10,Cc1cc(N2CCN(c3nc4ccccc4s3)CC2)n2ncnc2n1,7.32 µM
11,N=c1c2c(n(Cc3ccc(Br)cc3)c3c1CCC3)CCCC2,3.04 µM
12,CCCc1cc(=O)n2[nH]cc(-c3ccc(Cl)cc3)c2n1,11.9 µM
13,COc1ccc(C(=O)C/C(=C\C(=O)c2ccc(C)cc2)c2ccccc2)cc1,7.67 µM
14,c1ccc(CCNc2nc(-c3ccccn3)nc3ccccc23)cc1,4.92 µM
15,COc1ccc(Cc2nnc(N/N=C/c3ccccc3O)[nH]c2=O)cc1OC,4.32 µM
16,Clc1cc2cccnc2c2ncccc12,15 µM
17,Cc1ccc(Nc2cc(C)nc(NCc3ccccc3)n2)cc1,8.01 µM
18,CC1CCN(Cc2c(C(=O)N/N=C/c3cc(Br)ccc3O)nnn2-c2nonc2N)CC1,2.52 µM
19,CCn1c(=NC(=O)c2ccc(S(=O)(=O)N3CCOCC3)cc2)sc2cccc(OC)c21,8.4 µM
20,O=C(NNc1ccccc1Br)C(O)(c1cccc(C(F)(F)F)c1)c1cccc(C(F)(F)F)c1,7.06 µM
